Measurements reported in patent US20240217973A1, “IMIDAZOPYRIDINE COMPOUNDS AND USE THEREOF” (MEDSHINE DISCOVERY INC., priority 2021, published 2024).

Assays:
BTK kinase = BTK kinase (Homo sapiens (Human), UniProt Q06187); test: BTK kinase experiment (ADP-Glo); format: biochemical; details: 2 μM ATP, PolyE4Y1 substrate, 30 minutes pre-incubation
Experimental: BTK kinase, PolyE4Y1 substrate and Kinase assay buffer III were purchased from Signalchem; ADP-Glo Kinase Assay was purchased from Promega; Nivo multi-label analyzer (PerkinElmer).
1× buffer preparation (which was prepared and used immediately): Kinase assay buffer III was diluted with ddH2O to 1× assay buffer for later use.
The compound to be tested was diluted with 100% DMSO to 10 μM as the first concentration, and followed by a 5-fold dilution to the 8th concentration using a multi-channel pipette, i.e., it was diluted from 10 μM to 0.128 nM.
Each gradient of the compound to be tested was diluted into a working solution with 5% DMSO using 1× buffer, 1 μL/well was added to the corresponding well, and a double-replicate well experiment was set up. 2 μL of BTK enzyme (4 ng) was add to each well and incubating at 25° C. for 30 minutes. After the incubation was completed, 2 μL of a mixture of substrate and ATP (2 μM ATP, 0.2 μg/μL PolyE4Y1) was added to each well and incubating at 25° C. for 120 minutes. At this point, the final concentration gradient of the compound was diluted from 100 nM to 0.00128 nM. After the reaction was completed, 5 μL of ADP-Glo reagent was added to each well, and the reaction continued at 25° C. for 40 minutes. After the reaction was completed, 10 μL of kinase detection reagent was added to each well. After reacting at 25° C. for 30 minutes, PerkinElmer Nivo multi-label analyzer was used to read the chemiluminescence, and the integration time was 0.5 seconds.
Raw data was converted into inhibition rate using the equation: (Sample−Min)/(Max−Min)*100%. The IC50 value could then be derived by performing a curve fit using four-parameter (which was obtained using the “log(inhibitor) vs. response-Variable slope” mode in GraphPad Prism).

plasma proteins [1] = test: Plasma protein binding experiment (PPB), H; format: in vitro ADME, human; details: 2 μM, 4 hours dialysis
Experimental: (§1) Experimental operation: 995 μL of blank plasma of each genus was taken, 5 μL of working solution of test compound (400 μM) or working solution of warfarin (400 μM) was added, so that the final concentrations of the test compound and warfarin in the plasma sample was 2 μM. The sample was mixed thoroughly. The final concentration of the organic phase DMSO was 0.5%; 50 μL of plasma samples of the test compound and warfarin were pipetted into the sample receiving plate (three parallels), and the corresponding volume of the corresponding blank plasma or buffer was immediately added so that the final volume of each sample well was 100 μL, with a volume ratio of 1:1 for plasma: dialysis buffer, and then 500 μL of stop solution was added to these samples, and these samples would be used as a T0 sample for the recovery and stability determination. […] All samples were analyzed by LC/MS/MS after protein precipitation, and the protein binding rate and recovery rate were calculated by the formula: % Unbound=100*F/T, % Bound=100−% Unbound, % Recovery 100*(F+T) T0 (where F was the peak area ratio of the compound in the dialysate after 4 hours of dialysis; T was the peak area ratio of the compound in the plasma after 4 hours of dialysis, and T0 was the peak area ratio of the compound in the plasma sample at zero time).

plasma proteins [2] = test: Plasma protein binding experiment (PPB), D; format: in vitro ADME, dog; details: 2 μM, 4 hours dialysis
Experimental: as §1

plasma proteins [3] = test: Plasma protein binding experiment (PPB), C; format: in vitro ADME, cynomolgus monkey; details: 2 μM, 4 hours dialysis
Experimental: as §1

plasma proteins [4] = test: Plasma protein binding experiment (PPB), R; format: in vitro ADME, rat; details: 2 μM, 4 hours dialysis
Experimental: as §1

plasma proteins [5] = test: Plasma protein binding experiment (PPB), M; format: in vitro ADME, mouse; details: 2 μM, 4 hours dialysis
Experimental: as §1

[6] = Pharmacokinetic evaluation of compounds in rats; format: in vivo; details: rat, plasma, SD rats
Experimental: Experimental purpose: To test the in vivo pharmacokinetic data of compounds in SD rats.
The compound was mixed with the solvent 5% DMSO/5% Solutol/90% H2O, vortexed and sonicated to prepare a 0.5 mg/mL clear solution. The rats were administered the candidate compound solution intravenously. Whole blood was collected for a certain period of time, and plasma was prepared. The drug concentration was analyzed by LC-MS/MS method, and pharmacokinetic parameters were calculated.
The compound was mixed with the solvent 5% DMSO/5% Solutol/90% H2O, vortexed and sonicated to prepare a 2 mg/mL clear solution. The rats were administered candidate compound solutions orally. Whole blood was collected for a certain period of time, and plasma was prepared. The drug concentration was analyzed by LC-MS/MS method, and pharmacokinetic parameters were calculated.

[7] = Pharmacokinetic evaluation of compounds in dogs; format: in vivo; details: dog, plasma, beagle dogs
Experimental: Experimental purpose: To test the in vivo pharmacokinetic data of compounds in beagle dogs.
The compound was mixed with the solvent 5% DMSO/5% Solutol/90% H2O, vortexed and sonicated to prepare a 0.5 mg/mL clear solution. The beagle dogs were administered the candidate compound solution intravenously. Whole blood was collected for a certain period of time, and plasma was prepared. The drug concentration was analyzed by LC-MS/MS method, and pharmacokinetic parameters were calculated.
The compound was mixed with the solvent 5% DMSO/5% Solutol/90% H2O, vortexed and sonicated to prepare a 0.5 mg/mL clear solution. The beagle dogs were administered candidate compound solutions orally. Whole blood was collected for a certain period of time, and plasma was prepared. The drug concentration was analyzed by LC- MS/MS method, and pharmacokinetic parameters were calculated.

[8] = IV, 1.0 mg/kg (002), 0.85 mg/kg (003B)
[9] = PO, 9.2 mg/kg (002), 8.4 mg/kg (003B)
[10] = IV, 0.49 mg/kg (002), 0.5 mg/kg (003B)

Sequence of BTK kinase (Q06187 whole entry): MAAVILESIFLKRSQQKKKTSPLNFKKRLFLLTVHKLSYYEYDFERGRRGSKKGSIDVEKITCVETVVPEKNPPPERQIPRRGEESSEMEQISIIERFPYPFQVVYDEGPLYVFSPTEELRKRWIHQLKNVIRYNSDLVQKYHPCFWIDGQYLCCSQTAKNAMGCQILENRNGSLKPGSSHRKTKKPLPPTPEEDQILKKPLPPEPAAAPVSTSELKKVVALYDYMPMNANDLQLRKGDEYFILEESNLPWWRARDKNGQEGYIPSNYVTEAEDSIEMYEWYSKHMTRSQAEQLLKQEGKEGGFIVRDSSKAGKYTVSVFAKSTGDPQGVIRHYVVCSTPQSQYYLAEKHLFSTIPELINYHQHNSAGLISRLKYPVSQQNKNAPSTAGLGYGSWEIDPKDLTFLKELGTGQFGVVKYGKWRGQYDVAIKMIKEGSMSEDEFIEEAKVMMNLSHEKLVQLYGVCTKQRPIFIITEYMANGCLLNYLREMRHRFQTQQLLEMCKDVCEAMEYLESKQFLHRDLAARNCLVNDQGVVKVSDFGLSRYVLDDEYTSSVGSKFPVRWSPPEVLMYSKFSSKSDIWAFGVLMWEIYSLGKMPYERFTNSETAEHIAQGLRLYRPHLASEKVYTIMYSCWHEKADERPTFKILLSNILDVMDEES

SMILES: Nc1nccc2c1n(-c1ccc(Oc3ccccc3)cc1)c(=O)n2[C@@H]1CCCN(C(=O)/C=C/CF)C1 [Compound 002]
- IC50 (BTK kinase): 1.65 nM
- Unbound PPB (plasma proteins [1]): 8.2%
- Unbound PPB (plasma proteins [2]): 4.3%
- Unbound PPB (plasma proteins [3]): 4.1%
- Unbound PPB (plasma proteins [4]): 1.3%
- Unbound PPB (plasma proteins [5]): 4.5%
- AUC(0-inf) [6, 8]: 1.32 µM·h
- C0 [6, 8]: 3520 nM
- Vd [6, 8]: 0.7 L/kg
- clearance [6, 8]: 26 mL/min/kg
- half-life [6, 8]: 24 min
- AUC(0-inf) [6, 9]: 2.58 µM·h
- Cmax [6, 9]: 1800 nM
- Tmax [6, 9]: 22.8 min
- bioavailability [6, 9]: 18.1%
- half-life [6, 9]: 107 min
- AUC(0-inf) [7, 10]: 0.684 µM·h
- C0 [7, 10]: 1710 nM
- Vd [7, 10]: 1.5 L/kg
- clearance [7, 10]: 25.6 mL/min/kg
- half-life [7, 10]: 58.2 min
- AUC(0-inf) ([7]; PO, 2.0 mg/kg): 2.25 µM·h
- Cmax ([7]; PO, 2.0 mg/kg): 1140 nM
- Tmax ([7]; PO, 2.0 mg/kg): 30 min
- bioavailability ([7]; PO, 2.0 mg/kg): 82.2%
- half-life ([7]; PO, 2.0 mg/kg): 42.6 min
